Columns and labels:
[1] = tested on: Parvovirus; experiment: Case study, Parvo infected puppy; conditions: for Treated - Improvement / Treated Virus or symptom free: Dog (puppy), 300 mg, 3 times/day, 4 days, wt.% per Table 2; for confirmed Parvo free / recovered completely / showed signs of recovery: puppy, 300 mg three times a day for 4 days
[2] = tested on: Canine Herpes virus; experiment: Case study, Canine Herpes infected puppy; format: in vivo, Dog (puppy); conditions: for Treated - Improvement / Treated Virus or symptom free: Dog (puppy), 300 mg, 3 times/day, 4 days, wt.% per Table 2
[3] = tested on: Porcine reproductive and respiratory syndrome virus; experiment: Case study, PRRS confirmed piglets; format: in vivo, Pig (piglet); conditions: for Treated - Improvement / Treated Virus or symptom free: Pig (piglet), wt.% per Table 2; for confirmed PRRS free / recovered completely / showed signs of recovery: piglets
[4] = tested on: DNA enveloped, DNA non-enveloped, RNA enveloped and RNA non-enveloped viruses; experiment: In vivo case studies, overall conclusions across virus families; conditions: no base oil
[5] = tested on: Rotavirus; experiment: Case study, piglets with confirmed Rotavirus infections; format: in vivo, Pig (piglet); conditions: for Treated - Improvement / Treated Virus or symptom free: Pig (piglet), 2 days, wt.% per Table 2; for de-activation of the Rota virus confirmed / recovered completely / stopped having diarrhea: piglets
Procedure: All three piglets, which would normally experience 3 to 4 days of severe symptoms including diarrhea stopped having diarrhea on/after one day. The de-activation of the Rota virus infected was confirmed on/after the second day. The piglets recovered completely within 2 days.
Three piglets with confirmed Rotavirus infections were treated immediately with 50 mg of the compound of formula B, six times a day for 2 days. All 3 piglets, which would normally experience 4 to 5 days of severe symptoms including diarrhea stopped having diarrhea on/after the second day.
Both piglets, which would normally experience 3 to 4 days of severe symptoms including diarrhea stopped having diarrhea after one day.
(§1) All 3 piglets, which would normally experience 3 to 4 days of severe symptoms including diarrhea stopped having diarrhea after one day.
(§2) All 3 piglets, which would normally experience 3 to 4 days of severe symptoms including diarrhea stopped having diarrhea on/after one day.
as §2, §1

[6] = tested on: herpes simplex virus type 1; experiment: Case study, Herpes Labialis patient, topical treatment; format: in vivo, Human
[7] = tested on: human papilloma virus 2 and 7; experiment: Case study, skin warts of a patient
Procedure: Skin warts of patient were treated with 10 mg of the compound of formula B, three times a day for 3 days.
Skin warts of a patient were treated with 10 mg of the compound of formula B+C, three times a day for 3 days.
Skin warts of a patient were treated with 10 mg of the compound of formula A+B+C, three times a day for 3 days.

[8] = puppy, 300 mg three times a day for 4 days
[9] = 500 mg three times a day for 4 days
[10] = 500 mg three times a day for 2 days
[11] = Human (skin), 10 mg, 3 times/day, 1 day, wt.% per Table 2
[12] = patient, topical, 10 mg three times a day for 1 day, from onset of lesions
[13] = Human (skin), 10 mg, 3 times/day, 3 days, wt.% per Table 2
[14] = 50 mg six times a day for 3 days
[15] = 50 mg six times a day for 2 days

| Compound | Treated - Improvement [1] [days] | Treated Virus or symptom free [1] | confirmed Parvo free [1] | recovered completely [1] [days] | showed signs of recovery [1] | Treated - Improvement [2] [days] | Treated Virus or symptom free [2] | confirmed Herpes free [2, 8] | recovered completely [2, 8] [days] | Treated - Improvement ([3]; 500 mg, 3 times/day, 4 days) [days] | Treated Virus or symptom free ([3]; 500 mg, 3 times/day, 4 days) | confirmed PRRS free [3, 9] | recovered completely [3, 9] [days] | showed signs of recovery [3, 9] | results with 100 wt. % of compound compared with Tables 1 and 2 [4] | Treated - Improvement ([5]; 500 mg, 3 times/day) [days] | Treated Virus or symptom free ([5]; 500 mg, 3 times/day) | de-activation of the Rota virus confirmed [5, 10] | recovered completely [5, 10] [days] | stopped having diarrhea [5, 10] | other results |
| --- | --- | --- | --- | --- | --- | --- | --- | --- | --- | --- | --- | --- | --- | --- | --- | --- | --- | --- | --- | --- | --- |
| C=C=C(C)c1cc(O)c(O)c(C(=O)C[C@](C)(O)C=C)c1 [Formula A] | 1 | Day 4 | 4 day of treatment | 6 | first | 2 | Day 4 | 4 day of treatment | 10 | 1 | Day 2 | 2 day of treatment | 4 | one | same results | 1 | Day 2 | second | ≤ 2 | one | showed signs of recovery [2, 8]: second |
| C=C=C(C)c1cc(O)c(O)c(C(=O)C(C)C(C)(C)O)c1 (stereo not shown) [Formula B, 2,3(dihydroxy), 5[3(1,2)butadiene], 2[2-methylbutane]benzenal] | – | – | – | – | – | – | – | – | – | – | – | – | – | – | same results | – | – | – | – | – | Treated - Improvement [6, 11]: 3 days; Treated Virus or symptom free [6, 11]: Day 4; course of the infection [6, 12]: did not get worse; lesions started to disappear [6, 12]: second; no more signs of infection [6, 12]: 4 days; Treated - Improvement [7, 13]: 7 days; Treated Virus or symptom free [7, 13]: 21 days; skin tissue disappeared completely ([7]; patient, 10 mg three times a day for 3 days): 3 weeks; warts started to soften and becoming white ([7]; patient, 10 mg three times a day for 3 days, time printed in words): a week; Treated - Improvement ([3]; 50 mg, 6 times/day, 3 days): 2 days; Treated Virus or symptom free ([3]; 50 mg, 6 times/day, 3 days): Day 3; confirmed PRRS free [3, 14]: 3 day of treatment; recovered completely [3, 14]: 4 days; showed signs of recovery [3, 14]: second; Treated - Improvement ([5]; 50 mg, 6 times/day): 2 days; Treated Virus or symptom free ([5]; 50 mg, 6 times/day): Day 3; de-activation of the Rota virus confirmed [5, 15]: second; recovered completely [5, 15]: ≤ 3 days; stopped having diarrhea [5, 15]: second |
| C=C=C(C)c1cc(O)c(O)c(C(=O)O[C@](C)(O)C=C)c1 [Formula C, 2,3(dihydroxy), 5[3(1,2)butadiene], 2hydroxy,3butene benzoate] | 1 | Day 4 | 4 day of treatment | 6 | first | 2 | Day 4 | 4 day of treatment | 7 | 1 | Day 2 | 2 day of treatment | 4 | one | same results | 1 | Day 2 | first | ≤ 2 | one | – |

— patent US9315448B2 (Cesa Alliance S.A., priority 2011, dated 2016)
